Laboratory results published in US20100099088A1, “RELIABLE DETECTION OF VANCOMYCIN-INTERMEDIATE STAPHYLOCOCCUS AUREUS” (priority 2006, published 2010).
Converted amounts (≈) assume the structure as drawn. Read-outs that look alike come from different tables or passages of the source.

Experiments:
[1] = system: Staphylococcus aureus strains (MRSA, hVISA/VISA); assay: Modified (macromethod) Etest, vancomycin MIC, 2 McFarland inoculum; format: cell-based; conditions: for MIC: Staphylococcus aureus; for Modified Etest category: 2 McF inoculum; on Modified Etest category: key: S = sensitive; I = intermediate; R = resistant
Experimental: Vancomycin MICs were determined using standard Etest methods. Briefly, colonies from a fresh overnight plate were resuspended in saline to a turbidity equivalent to 0.5 McFarland units. This suspension was swabbed onto Mueller-Hinton agar plates, allowed to dry, and overlaid with a Vancomycin Etest strip (AB Biodisk). Plates were incubated at 37° C. for 48 h and interpreted. […] For some MRSA strains, the macromethod Etest was also applied, using an inoculum equivalent to 2 McFarland units on Brain-Heart Infusion agar plates.

[2] = system: Staphylococcus aureus hVISA/VISA strains; set-up: key: CG, confluent growth; IC, individual colonies; NG, no growth; conditions: cited from earlier work
Japanese strain Mu3 = conditions: strain Mu3, tests as susceptible; cited from earlier work

SMILES: CN[C@H](CC(C)C)C(=O)N[C@H]1C(=O)N[C@@H](CC(N)=O)C(=O)N[C@H]2C(=O)N[C@H]3C(=O)N[C@H](C(=O)N[C@H](C(=O)O)c4cc(O)cc(O)c4-c4cc3ccc4O)[C@H](O)c3ccc(c(Cl)c3)Oc3cc2cc(c3O[C@@H]2O[C@H](CO)[C@@H](O)[C@H](O)[C@H]2O[C@H]2C[C@](C)(N)[C@H](O)[C@H](C)O2)Oc2ccc(cc2Cl)[C@H]1O [vancomycin]
- MIC ([1]; read-out: Modified Etest MIC, strain CMRSA-1 (MRSA), 2 McF inoculum): 8 µg/mL (≈ 5.52 µM)
- MIC ([1]; read-out: Modified Etest MIC, strain CMRSA-2 (MRSA), 2 McF inoculum): 3 µg/mL (≈ 2.07 µM)
- MIC ([1]; read-out: Modified Etest MIC, strain CMRSA-3 (MRSA), 2 McF inoculum): 3 µg/mL (≈ 2.07 µM)
- MIC ([1]; read-out: Modified Etest MIC, strain CMRSA-4 (MRSA), 2 McF inoculum): 2 µg/mL (≈ 1.38 µM)
- Modified Etest category ([1]; strain CMRSA-1 (MRSA)): I
- Modified Etest category ([1]; strain CMRSA-2 (MRSA)): S
- Modified Etest category ([1]; strain CMRSA-3 (MRSA)): S
- Modified Etest category ([1]; strain CMRSA-4 (MRSA)): S
- Agar screen growth ([2]; strain 160013 (NRS283), 48 h incubation): IC (48)
- Agar screen growth ([2]; strain BR 5 (NRS56), 24 h incubation): CG (24)
- Agar screen growth ([2]; strain HIP07930 (NRS22), 48 h incubation): IC (48)
- Agar screen growth ([2]; strain HIP09433 (NRS27), 72 h incubation): NG (72)
- Agar screen growth ([2]; strain HIP09662 (NRS28), 72 h incubation): NG (72)
- Agar screen growth ([2]; strain HIP12864 (NRS402), 24 h incubation): CG (24)
- Agar screen growth ([2]; strain LIM 1 (NRS35), 72 h incubation): NG (72)
- Agar screen growth ([2]; strain LIM 3 (NRS37), 72 h incubation): NG (72)
- Agar screen growth ([2]; strain LY-1999 0620-01 (NRS63), 48 h incubation): IC (48)
- Agar screen growth ([2]; strain LY-1999 0620-02 (NRS64), 72 h incubation): NG (72)
- Agar screen growth ([2]; strain Mu3 (NRS2), 72 h incubation): NG (72)
- Agar screen growth ([2]; strain Mu50 (NRS1), 24 h incubation): CG (24)
- Agar screen growth ([2]; strain NRS118, 24 h incubation): CG (24)
- Agar screen growth ([2]; strain SA MER (NRS11), 72 h incubation): NG (72)
- Agar screen growth ([2]; strain SA MER-S20 (NRS14), 24 h incubation): CG (24)
- MIC (minimum inhibitory concentration) (Japanese strain Mu3): < 4 µg/mL
